Results: US20260015333A1, “COMPOUNDS AND METHODS FOR INHIBITION OF THE EVOLUTION OF […]” (priority 2022, published 2026)

Experiments:
S. typhimurium ST19 = test: Invasion and infection efficiency in HeLa cells; type: cell-based; settings: 31.25 μM ARM-1, compared to untreated WT
Procedure: FIGS. 3A-3C depict how ARM-1 reduces mutation frequency in culture and during infection. FIG. 3A depicts a Luria-Delbruck fluctuation assay with ARM-1 treatment. Single colonies of WT and Δmfd S. typhimurium ST19 were used to inoculate overnight cultures with appropriate antibiotic selection. Cultures were then diluted back to OD600 0.0005 and grown to OD600 0.5 with or without 100 μM ARM-1 treatment. Samples were plated on 80 ng/ml ciprofloxacin and grown overnight, then enumerated the following day. Data shown are the result of a minimum of 50 replicates. FIG. 3B depicts the invasion and infection efficiency in the presence of ARM-1. WT S. typhimurium ST19 in mid-log phase growth was used to infect HeLa cells. Invasion was allowed to proceed for 1 hour before uninternalized bacteria were removed and fresh media applied, containing vehicle control or 31.25 μM ARM-1. At the indicated timepoints, HeLa cells were lysed using 1% Triton-H2O and intracellular bacteria serially diluted and plated on LB for CFU enumeration. FIG. 3C depicts mutation frequency post mammalian cell infection. WT and Δmfd S. typhimurium ST19 were used to infect HeLa cells as described in FIG. 3B. Following infection, intracellular bacteria were harvested and plated on 50 μg/mL 5-fluorocytosine and grown overnight. Mutants were enumerated the following morning. […]

S. typhimurium ST19 Mfd = test: RNAP displacement (transcription roadblock) assay; type: biochemical; settings: Mfd 100 nM pre-incubated with ARM-1 (12.5 μM); without ARM-1 EC/IC=0.33
Procedure: FIGS. 2A-2D depict how ARM-1 affects Mfd's biochemical activity. FIG. 2A depicts how the kd of ARM-1 was determined using microscale thermophoresis. Data shown represent a minimum of three independent experiments. FIG. 2B depicts a NADH-coupled ATPase assay. ATP hydrolysis by Mfd was coupled to NADH oxidation. Phosphoenolpyruvate is converted to pyruvate by pyruvate kinase, transferring a phosphate group onto ADP, which is only present in the reaction following ATP hydrolysis by Mfd. Pyruvate is then converted to lactate by lactate dehydrogenase, oxidizing NADH to NAD^+. Absorbance at 340 nm by NADH is used to monitor the reaction. Data shown represent a minimum of 3 biological replicates. FIG. 2C depicts a transcription roadblock assay. A P32-labled 176 bp PCR fragment was incubated with E. coli RNAP along with saturating concentrations of ATP, GTP, and UTP. 100 nM S. typhimurium ST19 Mfd preincubated with indicated concentrations of ARM-1 was added and the reaction allowed to proceed for 6 minutes. DNA products were then resolved on a polyacrylamide gel and analyzed by phosphorimaging. […] Quantification of these gels is shown below each lane. […]
Mfd translocates along double-stranded DNA and dislodges stalled RNAP complexes. […] When quantified, a ratio of EC to IC of approximately 1 was observed, which was consistent with prior work. […]

## Cc1cc(Br)ccc1-c1ccc(CNCCCN(C)C)o1 [ARM-1, N^1-((5-(4-bromo-2-methylphenyl)furan-2-yl)methyl)-N^3,N^3-dimethylpropane-1,3-diamine]
S. typhimurium ST19
  defect in invasion or proliferation in HeLa cells: Neither the Δmfd mutant nor ARM-1 or solvent-treated wild-type or Δmfd strains show a defect in invasion or proliferation
S. typhimurium ST19 Mfd
  EC/IC (elongation complex to initiation complex ratio): 0.46
